From paper PMC12257510, “Structure-Guided Design of a KMT9 Inhibitor Prodrug with Cellular Activity” (Journal of Medicinal Chemistry, 2025)
Where two headings read alike, the source gives them in different places.

Assays:
[1] = biological target: T1, KMT9 (Homo sapiens, UniProt Q9Y5N5); test: Microscale thermophoresis (MST) binding assay
T1 sequence (Q9Y5N5 1-214): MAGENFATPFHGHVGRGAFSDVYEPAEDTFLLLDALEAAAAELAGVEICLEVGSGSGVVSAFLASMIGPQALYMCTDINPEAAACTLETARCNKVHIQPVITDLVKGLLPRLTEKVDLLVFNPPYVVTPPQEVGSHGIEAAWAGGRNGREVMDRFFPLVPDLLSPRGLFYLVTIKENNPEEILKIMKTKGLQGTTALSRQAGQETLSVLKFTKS
T1 sequence (Q9UI30 1-125 partner): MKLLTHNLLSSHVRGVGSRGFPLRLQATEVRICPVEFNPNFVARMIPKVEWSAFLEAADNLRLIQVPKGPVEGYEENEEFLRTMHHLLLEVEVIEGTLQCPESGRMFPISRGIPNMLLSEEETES
Procedure: To determine the binding affinity of the compound and KMT9, microscale thermophoresis (MST) analysis was performed with a NanoTemper Monolith NT.115 instrument (NanoTemper Technologies GmbH). KMT9 was labeled with a RED-Tris-NTA labeling kit (NanoTemper Technologies GmbH) based on the manufacturer’s instructions. Buffer including 25 mM HEPES (pH 7.5), 100 mM NaCl, 1 mM DTT and 0.05% Tween was used for the reaction buffer. Varying concentrations of compounds were titrated against His-tag labeled KMT9 proteins (20 nM). Samples were loaded into standard Capillaries (NanoTemper Technologies GmbH) and MST measurements were performed using 40% MST power and 100% LED power. For each set of binding experiments, MST measurement was carried out with Binding Affinity module in MO. Control program under Nano-RED excitation. Data sets were processed with the MO.Affinity Analysis software (NanoTemper Technologies GmbH).

[2] = biological target: T1, KMT9; test: KMT9 methyltransferase inhibition assay (3H-SAM, ETF1 substrate)
Procedure: The assay was carried out in 0.5 mL Eppendorf tubes in duplicates. Assay buffer consisted of 50 mM BTP, 1 mM MgCl2, 1 mM DTT and 0,01% Triton-X100 at a pH of 8.5 (adjusted using 1 M HCl and 1 M NaOH). 20X inhibitor stock (in DMSO), 2× enzyme stock and 4× substrate mix (both in assay buffer) were prepared. The substrate mix consisted of Tritium-labeled S-adenosylmethionine (3H-SAM), S-adenosylmethionine (SAM) and eukaryotic peptide chain release factor subunit1 (, residues 140–275) (ETF1). Final assay concentrations were set to 25 nM KMT9, 0.3 μM 3H-SAM, 0.7 μM SAM and 5 μM ETF1. […] Five μL of 4× substrate mix was added to initiate the reaction. The final reaction volume was 20 μL. For the positive control, the compound was replaced by DMSO; for the negative control, the compound was replaced by DMSO and KMT9 was replaced by assay buffer. The reaction mix was incubated in an Eppendorf thermomixer comfort at 30 °C for 2 h, shaking at 300 rpm. The reaction was quenched using 5 μL 50% trichloroacetic acid (TCA) and incubated at 25 °C for 5 min. Twenty-two μL of the mixture was transferred into 96-well MultiScreenHTS FB filter plates (Merck KGaA, Darmstadt, Germany) and washed four times with 10% TCA and two times with 100% ethanol. The plate was dried overnight, the filters were transferred into individual 6 mL Pony Vials (PerkinElmer Inc., Waltham, MA, USA) and incubated in 3 mL of Ultima Gold scintillation cocktail (PerkinElmer Inc., Waltham, MA, USA) for 30 min. The scintillation signal was measured for 3× 1 min using TriCarb 2910 TR (PerkinElmer) scintillation counter in 3H CPM mode (LL: 0, UL: 18.6).
Inhibition was calculated using the following formula: Inhibition[%]=(1−xc−xpos/xpos−xneg)×100
With xc: signal of compound, xpos: mean signal of positive control, xneg: mean signal of negative control. Data fitting was carried out by GraphPad 7.0 using nonlinear fit ([Inhibitor] vs response – variable slope (four parameters)).

[3] = biological target: T1, KMT9; test: Thermal shift assay (SyproOrange); type: binding; conditions: read-out: ΔTm
Procedure: The assay was carried out in 96-well Hard-Shell PCR plates (Bio-Rad Laboratories Inc.). […] Final assay concentrations were set to 500 μM of compound 8, 2 μM KMT9 and 5× SO. One μL of 20× compound, 4 μL of assay buffer, 10 μL of 2× KMT9 and 5 μL of 4× SO were pipetted. For the no-compound control, 20× inhibitor stock was replaced by DMSO. The final volume was 20 μL. The plate was spun down at 700 rpm for 1 min using a Hettich UNIVERSAL 320 centrifuge and incubated at 25 °C, shaking at 600 rpm. After incubation, the plate was spun down for 1 min at 700 rpm and measurement was conducted using a CFX96 Touch Real-Time PCR Detection System (Bio-Rad Laboratories Inc.). The plate was equilibrated at 20 °C for 4 min and then heated stepwise at a rate of 1 °C per 15 s until 95 °C. After every step, fluorescence was measured in FRET mode. Calculation of melting points was conducted by a Boltzman sigmoidal model using GraphPad Prism 7.0.

[4] = MST, binding to KMT9, read-out: Kd
[5] = thermal shift, 2 μM KMT9, 500 μM compound

Kd [1, 4] [µM]	ΔTm at 500 µM [3, 5] [°C]	Decrease of binding affinity compared to compound 7b ([1]; Kd ratio vs compound 7b)	SMILES	IC50 [2] [µM]	ΔTm at 500 µM [3] [°C]	Kd [1] [µM]	Reduction of potency compared to compound 2d ([1]; vs compound 2d) [fold]
10.9			Nc1ncnc2c1ncn2[C@@H]1O[C@H](CSCC[C@H](N)C(=O)O)[C@@H](O)[C@H]1O [SAH, S-adenosyl-L-homocysteine, reference compound]				
6.8			Nc1ncnc2c1ncn2[C@@H]1O[C@H](CN(CC[C@H](N)C(=O)O)CC[C@H](N)C(=O)O)[C@@H](O)[C@H]1O [compound 1, (2S,2’S)-4,4’-((((2R,3S,4R,5R)-5-(6-Amino-9H-purin-9-yl)-3,4-dihydroxytetrahydrofuran-2-yl)methyl)azanediyl)bis(2-aminobutanoic Acid)]				
			Nc1ncnc2c1ncn2[C@@H]1O[C@H](CN(CC[C@H](N)C(=O)O)CC[C@H](N)c2ccccc2)[C@@H](O)[C@H]1O [compound 2a]	3	10.6	15	
			NCCCN(CCC(N)C(F)F)C[C@H]1O[C@@H](n2cnc3c(N)ncnc32)[C@H](O)[C@@H]1O (stereo partly drawn) [compound 4b, (2R,3S,4R,5R)-2-(((3-Amino-4,4-difluorobutyl)(3-aminopropyl)amino)methyl)-5-(6-amino-9H-purin-9-yl)tetrahydrofuran-3,4-diol]	200	2.86	100	
> 500	3.43		NCCCN(CCC(N)C(F)(F)F)C[C@H]1O[C@@H](n2cnc3c(N)ncnc32)[C@H](O)[C@@H]1O (stereo partly drawn) [compound 4c, (2R,3S,4R,5R)-2-(((3-Amino-4,4,4-trifluorobutyl)(3-aminopropyl)amino)methyl)-5-(6-amino-9H-purin-9-yl)tetrahydrofuran-3,4-diol]	500			
			NCCCN(C[C@H]1C=CCN1)C[C@H]1O[C@@H](n2cnc3c(N)ncnc32)[C@H](O)[C@@H]1O [compound 4f, (2R,3R,4S,5R)-2-(6-Amino-9H-purin-9-yl)-5-(((3-aminopropyl)(((R)-2,5-dihydro-1H-pyrrol-2-yl)methyl)amino)methyl)tetrahydrofuran-3,4-diol]	253	-0.52	> 500	
			Nc1ncnc2c1ncn2[C@@H]1O[C@H](CN(CCCNCc2ccccc2)CC[C@H](N)C(=O)O)[C@@H](O)[C@H]1O [compound 5a, (S)-2-Amino-4-((((2R,3S,4R,5R)-5-(6-amino-9H-purin-9-yl)-3,4-dihydroxytetrahydrofuran-2-yl)methyl)(3-(benzylamino)propyl)amino)butanoic acid]	0.1	19.6	0.04	
			Nc1ncnc2c1ncn2[C@@H]1O[C@H](CN(CCCNCCc2ccccc2)CC[C@H](N)C(=O)O)[C@@H](O)[C@H]1O [compound 5b, (S)-2-Amino-4-((((2R,3S,4R,5R)-5-(6-amino-9H-purin-9-yl)-3,4-dihydroxytetrahydrofuran-2-Yyl)methyl)(3-(phenethylamino)propyl)amino)butanoic acid]	0.034	20.9	0.01	
			Nc1ncnc2c1ncn2[C@@H]1O[C@H](CN(CCCNCCCc2ccccc2)CC[C@H](N)C(=O)O)[C@@H](O)[C@H]1O [compound 5c, (S)-2-Amino-4-((((2R,3S,4R,5R)-5-(6-amino-9H-purin-9-yl)-3,4-dihydroxytetrahydro-furan-2-yl)methyl)(3-((3-phenylpropyl)amino)propyl)amino)butanoic acid]	0.064	21.3	0.02	
0.07	17.5		CNc1ncnc2c1ccn2[C@@H]1C[C@H](CN(CCCNCCc2ccc(Oc3ccccc3)cc2)CC[C@H](N)C(=O)O)[C@@H](O)[C@H]1O [compound 7a, (S)-2-Amino-4-((((1R,2R,3S,4R)-2,3-dihydroxy-4-(4-(methylamino)-7H-pyrrolo[2,3-d]pyrimidin-7-yl)cyclopentyl)methyl)(3-((4-phenoxyphenethyl)amino)propyl)amino) Butanoic acid]	0.6			
~56		more than 1000 fold	CNc1ncnc2c1ccn2C1CC(CN(CCCOCCc2ccc(Oc3ccc(Cl)cc3)c(F)c2)CCC(N)C(=O)O)C(O)C1O [compound 7b-N, (S)-2-Amino-4-((3-(4-(4-chlorophenoxy)-3-fluorophenethoxy)propyl)(((1R,2R,3S,4R)-2,3-dihydroxy-4-(4-(methylamino)-7H-pyrrolo[2,3-d]pyrimidin-7-yl)cyclopentyl)methyl)amino)butanoic Acid]				

SMILES	Kd [1, 4] [µM]	ΔTm at 500 µM [3, 5] [°C]	Decrease of binding affinity compared to compound 7b ([1]; Kd ratio vs compound 7b)	IC50 [2] [µM]	ΔTm at 500 µM [3] [°C]	Kd [1] [µM]	Reduction of potency compared to compound 2d ([1]; vs compound 2d) [fold]
CN(C)CCCN(CC[C@H](N)C(=O)O)C[C@H]1O[C@@H](n2cnc3c(N)ncnc32)[C@H](O)[C@@H]1O [compound 3b, reference compound]	1			6	9.55		~100
C[C@@H](CN(CCCN)C[C@H]1O[C@@H](n2cnc3c(N)ncnc32)[C@H](O)[C@@H]1O)N1CCC(O)CC1 [compound 4e, (2R,3R,4S,5R)-2-(6-Amino-9H-purin-9-yl)-5-(((3-aminopropyl)((s)-2-(4-hydroxypiperidin-1-yl)propyl)amino)methyl)tetrahydrofuran-3,4-diol]	50			> 500	2.78		
